Laboratory results from patent publication US20250368649A1, “TETRAHYDROPYRIDOPYRIMIDINE PAN-KRAS INHIBITORS” (Mirati Therapeutics, Inc., priority 2022, published 2025).

How the values were obtained:
KRas G12S = KRas G12S (Homo sapiens, UniProt P01116, G12S); format: binding; conditions: TR-FRET displacement, read-out: Binding to KRas (IC50 nM) G12S
KRas G12A = KRas G12A (Homo sapiens, UniProt P01116, G12A); format: binding; conditions: TR-FRET displacement, read-out: Binding to KRas (IC50 nM) G12A
KRas G13D = KRas G13D (Homo sapiens, UniProt P01116, G13D); format: binding; conditions: TR-FRET displacement, read-out: Binding to KRas (IC50 nM) G13D
KRas G12D = KRas G12D (Homo sapiens, UniProt P01116, G12D); experiment: biochemical; conditions: Binding to KRas (IC50 nM) G12D, TR-FRET displacement, KRas G12D
KRas G12C = KRas G12C (Homo sapiens, UniProt P01116, G12C); format: binding; conditions: TR-FRET displacement, read-out: Binding to KRas (IC50 nM) G12C
KRas Q61H = KRas Q61H (Homo sapiens, UniProt P01116, Q61H); experiment: KRas binding assay (TR-FRET displacement), KRas Q61H; conditions: TR-FRET displacement
KRas G12V = KRas G12V (Homo sapiens, UniProt P01116, G12V); experiment: biochemical; conditions: Binding to KRas (IC50 nM) G12V, TR-FRET displacement, KRas G12V
KRas WT = KRas WT (Homo sapiens, UniProt P01116); experiment: KRas binding assay (TR-FRET displacement), KRas WT; conditions: TR-FRET displacement
KRas WT, sequence (P01116 1-169 isoform P01116-2): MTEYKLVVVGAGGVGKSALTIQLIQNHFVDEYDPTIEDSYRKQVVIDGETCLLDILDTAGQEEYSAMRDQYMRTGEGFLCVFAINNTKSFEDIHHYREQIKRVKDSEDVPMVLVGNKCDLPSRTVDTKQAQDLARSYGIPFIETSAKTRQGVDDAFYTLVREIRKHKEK

KRas G12S, sequence (P01116 1-169 isoform P01116-2 G12S): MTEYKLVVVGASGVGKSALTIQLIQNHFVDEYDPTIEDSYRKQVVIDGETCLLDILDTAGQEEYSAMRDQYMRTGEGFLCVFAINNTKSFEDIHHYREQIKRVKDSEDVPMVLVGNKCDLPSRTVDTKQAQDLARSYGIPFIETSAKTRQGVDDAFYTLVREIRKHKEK
KRas G12C, sequence (P01116 1-169 isoform P01116-2 G12C): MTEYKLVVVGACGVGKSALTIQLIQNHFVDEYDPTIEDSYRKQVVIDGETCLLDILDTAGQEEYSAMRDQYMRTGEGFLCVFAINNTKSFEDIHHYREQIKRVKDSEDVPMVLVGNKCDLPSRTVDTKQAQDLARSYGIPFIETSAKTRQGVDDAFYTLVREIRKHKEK
KRas Q61H, sequence (P01116 1-169 isoform P01116-2 Q61H): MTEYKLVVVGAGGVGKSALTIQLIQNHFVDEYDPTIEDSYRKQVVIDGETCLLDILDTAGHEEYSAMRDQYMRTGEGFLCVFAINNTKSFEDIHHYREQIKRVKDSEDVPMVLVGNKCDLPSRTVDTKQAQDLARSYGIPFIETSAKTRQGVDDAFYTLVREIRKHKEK
KRas G12D, sequence (P01116 1-169 isoform P01116-2 G12D): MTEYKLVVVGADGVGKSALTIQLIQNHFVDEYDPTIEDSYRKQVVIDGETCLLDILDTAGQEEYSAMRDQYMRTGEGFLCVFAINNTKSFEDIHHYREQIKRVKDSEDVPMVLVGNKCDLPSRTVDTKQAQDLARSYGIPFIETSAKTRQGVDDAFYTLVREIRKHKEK
KRas G12V, sequence (P01116 1-169 isoform P01116-2 G12V): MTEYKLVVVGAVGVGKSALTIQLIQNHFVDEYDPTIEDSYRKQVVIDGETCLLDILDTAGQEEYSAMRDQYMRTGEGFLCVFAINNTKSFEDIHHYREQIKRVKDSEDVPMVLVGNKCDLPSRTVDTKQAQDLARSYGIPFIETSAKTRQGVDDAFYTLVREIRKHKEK
KRas G13D, sequence (P01116 1-169 isoform P01116-2 G13D): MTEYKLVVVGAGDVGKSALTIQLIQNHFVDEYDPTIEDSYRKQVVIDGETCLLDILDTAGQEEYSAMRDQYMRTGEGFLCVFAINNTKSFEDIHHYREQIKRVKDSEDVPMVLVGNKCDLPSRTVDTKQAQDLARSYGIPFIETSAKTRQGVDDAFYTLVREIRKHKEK
KRas G12A, sequence (P01116 1-169 isoform P01116-2 G12A): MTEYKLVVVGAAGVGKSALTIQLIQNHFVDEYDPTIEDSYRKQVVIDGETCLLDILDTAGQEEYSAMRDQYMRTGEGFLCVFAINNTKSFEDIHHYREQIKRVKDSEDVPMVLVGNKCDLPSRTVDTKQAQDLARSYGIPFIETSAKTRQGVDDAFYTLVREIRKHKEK

| SMILES | IC50 (KRas G12S) [nM] | IC50 (KRas G12A) [nM] | IC50 (KRas G13D) [nM] | IC50 (KRas G12D) [nM] | IC50 (KRas G12C) [nM] | IC50 (KRas Q61H) [nM] | IC50 (KRas G12V) [nM] | IC50 (KRas WT) [nM] |
| --- | --- | --- | --- | --- | --- | --- | --- | --- |
| CCc1cccc2cccc(N3CCc4c(nc(OCC5(CN(C)C)CC5)nc4N4CCOC(c5noc(C6CC6)n5)C4)C3)c12 (stereo not drawn) [Example 566, 1-(1-(((4-(2-(5-cyclopropyl-1,2,4-oxadiazol-3-yl)morpholino)-7-(8-ethylnaphthalen-1-yl)-5,6,7,8-tetrahydropyrido[3,4-d]pyrimidin-2-yl)oxy)methyl)cyclopropyl)-N,N-dimethylmethanamine] | 8690 | 7990 | 15300 | 35600 | 3760 | 15200 | 5700 | 8780 |
| CCc1cccc2cccc(N3CCc4c(nc(OCC5(CN(C)C)CC5)nc4NCCc4ncc(F)cc4F)C3)c12 [Example 568, N-(2-(3,5-difluoropyridin-2-yl)ethyl)-2-((1-((dimethylamino)methyl)cyclopropyl)methoxy)-7-(8-ethylnaphthalen-1-yl)-5,6,7,8-tetrahydropyrido[3,4-d]pyrimidin-4-amine] | 13600 | 13400 | 19800 | 39100 | 7900 | 15300 | 5210 | 15700 |
| CCc1cccc2cccc(N3CCc4c(nc(OCC5(CN(C)C)CC5)nc4NCc4cnnn4C)C3)c12 [Example 662, 2-((1-((dimethylamino)methyl)cyclopropyl)methoxy)-7-(8-ethylnaphthalen-1-yl)-N-((1-methyl-1H-1,2,3-triazol-5-yl)methyl)-5,6,7,8-tetrahydropyrido[3,4-d]pyrimidin-4-amine] | 10100 | 9520 | 13600 | 14400 | 5470 | 10500 | 4040 | 10300 |
| CCc1cccc2cccc(N3CCc4c(nc(OCC5(CN(C)C)CC5)nc4N4CCn5nncc5C4)C3)c12 [Example 665, 1-(1-(((4-(6,7-dihydro-[1,2,3]triazolo[1,5-a]pyrazin-5(4H)-yl)-7-(8-ethylnaphthalen-1-yl)-5,6,7,8-tetrahydropyrido[3,4-d]pyrimidin-2-yl)oxy)methyl)cyclopropyl)-N,N-dimethylmethanamine] | 62800 | 83100 | > 100000 | 6840 | 37800 | > 100000 | 10800 | 87600 |
| CCc1cccc2cccc(N3CCc4c(nc(OCC5(CN(C)C)CC5)nc4NCCc4nnc(N)o4)C3)c12 [Example 671, 5-(2-((2-((1-((dimethylamino)methyl)cyclopropyl)methoxy)-7-(8-ethylnaphthalen-1-yl)-5,6,7,8-tetrahydropyrido[3,4-d]pyrimidin-4-yl)amino)ethyl)-1,3,4-oxadiazol-2-amine] | 16500 | 10200 | 33000 | 11800 | 5240 | 30200 | 1980 | 23900 |
| CCc1cccc2cccc(N3CCc4c(nc(OCC5(CN(C)C)CC5)nc4NCc4nc(C5CC5)n[nH]4)C3)c12 [Example 675, N-((3-cyclopropyl-1H-1,2,4-triazol-5-yl)methyl)-2-((1-((dimethylamino)methyl)cyclopropyl)methoxy)-7-(8-ethylnaphthalen-1-yl)-5,6,7,8-tetrahydropyrido[3,4-d]pyrimidin-4-amine] | 16600 | 17300 | 15300 | 6300 | 8480 | 25300 | 3240 | 16900 |
| CCc1cccc2cccc(N3CCc4c(nc(OCC5(CN(C)C)CC5)nc4NCc4cnc(C)nc4N)C3)c12 [Example 677, N-((4-amino-2-methylpyrimidin-5-yl)methyl)-2-((1-((dimethylamino)methyl)cyclopropyl)methoxy)-7-(8-ethylnaphthalen-1-yl)-5,6,7,8-tetrahydropyrido[3,4-d]pyrimidin-4-amine] | 13600 | 9110 | 13900 | 2330 | 6330 | 14100 | 4410 | 11000 |
| CCc1cccc2cccc(N3CCc4c(nc(OCC5(CN(C)C)CC5)nc4NCc4ccnn4CC(F)F)C3)c12 [Example 683, N-((1-(2,2-difluoroethyl)-1H-pyrazol-5-yl)methyl)-2-((1-((dimethylamino)methyl)cyclopropyl)methoxy)-7-(8-ethylnaphthalen-1-yl)-5,6,7,8-tetrahydropyrido[3,4-d]pyrimidin-4-amine] | 8600 | 8280 | 16100 | 8310 | 5450 | 12100 | 5850 | 10800 |
| CCc1cccc2cccc(N3CCc4c(nc(OCC5(CN(C)C)CC5)nc4N4CCC(n5cn[nH]c5=O)CC4)C3)c12 [Example 688, 4-(1-(2-((1-((dimethylamino)methyl)cyclopropyl)methoxy)-7-(8-ethylnaphthalen-1-yl)-5,6,7,8-tetrahydropyrido[3,4-d]pyrimidin-4-yl)piperidin-4-yl)-2,4-dihydro-3H-1,2,4-triazol-3-one] | 17700 | 9730 | 14500 | 37400 | 10000 | 18100 | 6430 | 14600 |

Continued, values first:

| IC50 (KRas G12S) [nM] | IC50 (KRas G12A) [nM] | IC50 (KRas G13D) [nM] | IC50 (KRas G12D) [nM] | IC50 (KRas G12C) [nM] | IC50 (KRas Q61H) [nM] | IC50 (KRas G12V) [nM] | IC50 (KRas WT) [nM] | SMILES |
| --- | --- | --- | --- | --- | --- | --- | --- | --- |
| 4330 | 6050 | 11800 | 37600 | 3470 | 9550 | 5760 | 11600 | CCc1cccc2cccc(N3CCc4c(nc(OCC5(CN(C)C)CC5)nc4NCc4cc(C5CC5)nn4C)C3)c12 [Example 567, N-((3-cyclopropyl-1-methyl-1H-pyrazol-5-yl)methyl)-2-((1-((dimethylamino)methyl)cyclopropyl)methoxy)-7-(8-ethylnaphthalen-1-yl)-5,6,7,8-tetrahydropyrido[3,4-d]pyrimidin-4-amine] |
| 8590 | 10800 | 16900 | 41500 | 7220 | 10500 | 4610 | 12200 | CCc1cccc2cccc(N3CCc4c(nc(OCC5(CN(C)C)CC5)nc4NCC4(c5ccccc5)CCC(=O)N4)C3)c12 (stereo not drawn) [Example 569, 5-(((2-((1-((dimethylamino)methyl)cyclopropyl)methoxy)-7-(8-ethylnaphthalen-1-yl)-5,6,7,8-tetrahydropyrido[3,4-d]pyrimidin-4-yl)amino)methyl)-5-phenylpyrrolidin-2-one] |
| 58 | 134 | 72 | 39000 | 74 | 37 | 13700 | 99 | CCc1cccc2cccc(N3CCc4c(nc(OCC5(CN(C)C)CC5)nc4NCCc4nnc5n4CCC5)C3)c12 [Example 570, N-(2-(6,7-dihydro-5H-pyrrolo[2,1-c][1,2,4]triazol-3-yl)ethyl)-2-((1-((dimethylamino)methyl)cyclopropyl)methoxy)-7-(8-ethylnaphthalen-1-yl)-5,6,7,8-tetrahydropyrido[3,4-d]pyrimidin-4-amine] |
| 1980 | 1880 | 1970 | 9750 | 602 | 2030 | 1540 | 1960 | CCc1cccc2cccc(N3CCc4c(nc(OCC5(CN(C)C)CC5)nc4NCCc4sc(N)nc4C)C3)c12 [Example 670, 5-(2-((2-((1-((dimethylamino)methyl)cyclopropyl)methoxy)-7-(8-ethylnaphthalen-1-yl)-5,6,7,8-tetrahydropyrido[3,4-d]pyrimidin-4-yl)amino)ethyl)-4-methylthiazol-2-amine] |
| 3700 | 3970 | 4050 | 1410 | 2030 | 3960 | 1250 | 3490 | CCc1cccc2cccc(N3CCc4c(nc(OCC5(CN(C)C)CC5)nc4NC4CN(c5nncs5)C4)C3)c12 [Example 674, N-(1-(1,3,4-thiadiazol-2-yl)azetidin-3-yl)-2-((1-((dimethylamino)methyl)cyclopropyl)methoxy)-7-(8-ethylnaphthalen-1-yl)-5,6,7,8-tetrahydropyrido[3,4-d]pyrimidin-4-amine] |
| 7090 | 6300 | 6220 | 4290 | 3410 | 6700 | 1910 | 5010 | CCc1cccc2cccc(N3CCc4c(nc(OCC5(CN(C)C)CC5)nc4NC4CN(C(=O)NC)C4)C3)c12 [Example 676, 3-((2-((1-((dimethylamino)methyl)cyclopropyl)methoxy)-7-(8-ethylnaphthalen-1-yl)-5,6,7,8-tetrahydropyrido[3,4-d]pyrimidin-4-yl)amino)-N-methylazetidine-1-carboxamide] |
